From the NIST ThermoML archive (doi:10.1016/j.fluid.2008.07.003)
± gives the expanded uncertainty stated by the source.

Conditions: Liquid

FCC(F)(F)F [1,1,1,2-tetrafluoroethane]
Conditions | vapor or sublimation pressure [kPa]
283.15 K | 416 ± 2.6
293.15 K | 572.4 ± 3.6
303.15 K | 771.5 ± 4.8
313.15 K | 1017.5 ± 6.4
323.15 K | 1318.8 ± 8.2
333.15 K | 1681.6 ± 10
343.15 K | 2114.5 ± 13
353.15 K | 2629 ± 16
